Measurements published in patent US9290490B2 (Merck Sharp & Dohme Corp., priority 2011, dated 2016).
Where two headings read alike, the source gives them in different places.

Tests used:
PGD2 = details: intranasal, allergic rhinitis, phase I/II; cited from earlier work
[1] = allergic rhinitis, phase II; cited from earlier work
[2] = biological target: recombinant human GST-Syk (Homo sapiens (Human), UniProt P43405); experiment: Homogeneous Time-Resolved Fluorescence (HTRF) Assay for the Recombinant Human Syk Enzyme; format: biochemical; details: recombinant human GST-Syk 5 pM, ATP 25 μM
Method: Homogeneous Time-Resolved Fluorescence (HTRF) Assay for the Recombinant Human Syk Enzyme:
A recombinant GST-hSyk fusion protein was used to measure potency of compounds to inhibit human Syk activity. The recombinant human GST-Syk (Carna Biosciences #08-176) (5 pM final concentration) was incubated with various concentrations of the inhibitor diluted in DMSO (0.1% final concentration) for 10 minutes at room temperature in 15 mM Tris-HCl (pH 7.5), 0.01% tween 20, 2 mM DTT in 384 well plate format. To initiate the reaction the biotinylated substrate peptide (250 nM final concentration) that contains the phosphorylation site for Syk was added with magnesium (5 mM final concentration) and ATP (25 μM final concentration). Final volume of the reaction was 10 μL. Phosphorylation of the peptide was allowed to proceed for 45′ at room temperature. To quench the reaction and detect the phosphorylated product, 2 nM of a Europium-anti-phosphotyrosine antibody (Perkin Elmer #AD0161) and 70 nM SA-APC (Perkin-Elmer #CR130-100) were added together in 15 mM Tris pH 7.5, 40 mM EDTA, 0.01% Tween 20. Final volume of the quenching solution was 10 μL. The resulting HTRF signal was measured after 30 minutes on a EnVision (Perkin-Elmer) reader using a time-resolved fluorescence protocol. […] IC50 values are also provided for the following representative compounds: […]

[3] = read-out: rhSyk Activity (IC50)
[4] = 10-dose titration, read-out: rhSyk

Question: With `Oc1cccc(Nc2ncc(F)c(Nc3cccc(O)c3)n2)c1` [Example R112] as the compound, how does the “decrease in PGD2” value (PGD2) read?
Answer: Its value is “statistically significant decrease”.

Question: What about the “safety across a range of indicators” value (PGD2) of the same compound?
Answer: The value was “safe”.

Question: And the efficacy versus placebo [1]?
Answer: Its efficacy versus placebo is “lack of efficacy”.

Question: For `CCCCOC(=O)[C@H]1CC[C@H](C(C)(O)c2ncc(-c3cc(C)cc(Nc4nccc(C(F)(F)F)n4)c3)s2)CC1` (relative stereo) [Example 1, Step 1, butyl trans-4-{1-hydroxy-1-[5-(3-methyl-5-{[4-(trifluoromethyl)pyrimidin-2-yl]amino}-phenyl)-1,3-thiazol-2-yl]ethyl}cyclohexanecarboxylate], which IC50 [2, 3] is on record?
Answer: Its IC50 is ≤ 100 nM.

Question: Which results are given for `Cc1cc(Nc2nccc(C)n2)cc(-c2cnc(C(O)(C3CCC(C(=O)O)CC3)C(F)(F)F)s2)c1` (stereo not drawn) [Example 2-101]?
Answer: IC50 [2, 4]: 2 nM; IC50 [2, 3]: ≤ 100 nM

Question: With `Cc1cc(Nc2nccc(C(F)(F)F)n2)cc(-c2cnc([C@@](O)(C3CC3)[C@H]3CC[C@H](C(=O)O)CC3)s2)c1` (single isomer, unassigned) [Example 2 (from Intermediate 28 slower eluting enantiomer), trans-4-{(R or S)-cyclopropyl(hydroxy)[5-(3-methyl-5-{[4-(trifluoromethyl)pyrimidin-2-yl]amino}phenyl)-1,3-thiazol-2-yl]methyl}cyclohexanecarboxylic] as the compound, how does the IC50 [2, 3] read?
Answer: The IC50 was ≤ 100 nM.

Question: With `COC(C)(c1ncc(-c2cc(C)cc(Nc3nccc(C(F)(F)F)n3)c2)s1)[C@H]1CC[C@H](C(=O)O)CC1` (stereo partly drawn) [Example 2-110] as the compound, how does the IC50 [2, 4] read?
Answer: Its IC50 is 1 nM.

Question: And the IC50 [2, 3]?
Answer: The IC50 was ≤ 100 nM.

Question: What does the source list for `Cc1cc(Nc2nccc(C)n2)cc(-c2cnc(CC3(O)CCC(C(=O)OC(C)(C)C)CC3)s2)c1` (single isomer, unassigned) [Example 5, Step 3 (trans isomer), tert-butyl trans-4-hydroxy-4-[(5-{3-methyl-5-[(4-methylpyrimidin-2-yl)amino]phenyl}-1,3-thiazol-2-yl)methyl]cyclohexanecarboxylate]?
Answer: IC50 [2, 4]: 318 nM; IC50 [2, 3]: 100 to 1000 nM

Question: With `Cc1cc(Nc2nccc(C(F)(F)F)n2)cc(-c2cnc(C(C)(O)C3CCC(C(=O)O)C3)s2)c1` (stereo not drawn) [Example 3-4] as the compound, how does the IC50 [2, 3] read?
Answer: The IC50 was ≤ 100 nM.

Question: With `Cc1cc(Nc2nccc(C(F)F)n2)cc(-c2cnc(C(C)(O)[C@H]3CC[C@H](C(=O)O)CC3)s2)c1Br` (stereo partly drawn) [Example 8-1] as the compound, how does the IC50 [2, 3] read?
Answer: Its IC50 is ≤ 100 nM.

Question: Which IC50 [2, 4] does the source give for `Cc1cc(Nc2nccc(C)n2)cc(-c2cnc(C(C)(O)[C@H]3CC[C@H](C(=O)O)CC3)s2)c1` (single isomer, unassigned) [Example 2-52, trans-4-[(1R or S)-hydroxy-1-(5-{3-methyl-5-[(4-methylpyrimidin-2-yl)amino]phenyl}-1,3-thiazol-2-yl)ethyl]cyclohexanecarboxylic acid] here?
Answer: The IC50 was 1 nM.

Question: And the IC50 [2, 3]?
Answer: The IC50 was ≤ 100 nM.
